Key:
[1] = molecular target: T1, Prostaglandin G/H synthase 2 (Homo sapiens, UniProt P35354); assay: Inhibition of human recombinant COX-2 assessed as production of PGE2 using arachidonic acid as a substrate preincubated for 60 mins followed by substrate addition and measured after 2 mins by ELISA analysis
T1 sequence (P35354 whole entry): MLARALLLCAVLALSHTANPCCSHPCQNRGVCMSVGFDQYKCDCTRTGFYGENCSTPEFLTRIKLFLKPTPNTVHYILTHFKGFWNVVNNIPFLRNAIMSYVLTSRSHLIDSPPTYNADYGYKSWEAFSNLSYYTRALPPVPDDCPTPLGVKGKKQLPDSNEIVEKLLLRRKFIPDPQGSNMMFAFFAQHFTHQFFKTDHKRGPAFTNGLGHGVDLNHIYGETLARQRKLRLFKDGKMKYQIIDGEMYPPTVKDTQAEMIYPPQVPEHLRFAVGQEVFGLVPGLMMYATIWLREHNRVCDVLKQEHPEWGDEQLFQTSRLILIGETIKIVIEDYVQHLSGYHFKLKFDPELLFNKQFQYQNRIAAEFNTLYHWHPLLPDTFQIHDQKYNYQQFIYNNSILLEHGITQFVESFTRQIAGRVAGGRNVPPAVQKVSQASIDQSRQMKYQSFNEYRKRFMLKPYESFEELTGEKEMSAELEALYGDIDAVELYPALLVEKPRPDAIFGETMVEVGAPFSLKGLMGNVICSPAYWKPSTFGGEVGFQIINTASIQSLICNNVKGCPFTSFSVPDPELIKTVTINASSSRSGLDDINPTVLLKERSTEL

[2] = molecular target: T2, Prostaglandin G/H synthase 1 (Ovis aries) (UniProt P05979); assay: Inhibition of ovine COX-1 assessed as production of PGE2 using arachidonic acid as a substrate preincubated for 60 mins at 100 uM followed by substrate addition and measured after 2 mins by ELISA analysis relative to control; conditions: time 62.0 min
T2 sequence (whole entry): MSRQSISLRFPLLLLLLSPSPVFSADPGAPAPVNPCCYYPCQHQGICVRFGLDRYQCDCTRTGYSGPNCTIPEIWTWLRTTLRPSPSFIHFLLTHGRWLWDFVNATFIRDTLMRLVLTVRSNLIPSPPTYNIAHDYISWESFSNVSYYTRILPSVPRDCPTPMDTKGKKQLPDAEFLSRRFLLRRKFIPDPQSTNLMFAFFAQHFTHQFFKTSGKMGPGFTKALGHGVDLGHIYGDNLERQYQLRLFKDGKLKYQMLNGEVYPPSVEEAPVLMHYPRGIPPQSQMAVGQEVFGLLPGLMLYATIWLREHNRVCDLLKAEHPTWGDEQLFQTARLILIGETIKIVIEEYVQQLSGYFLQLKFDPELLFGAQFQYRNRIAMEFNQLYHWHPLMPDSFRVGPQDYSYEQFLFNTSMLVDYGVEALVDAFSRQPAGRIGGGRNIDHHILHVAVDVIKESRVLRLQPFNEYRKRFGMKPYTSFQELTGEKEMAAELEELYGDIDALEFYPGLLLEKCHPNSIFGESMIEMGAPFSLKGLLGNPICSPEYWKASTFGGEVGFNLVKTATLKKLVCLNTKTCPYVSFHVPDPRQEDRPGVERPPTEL

[3] = system: Mus musculus; assay: Antiinflammatory activity in mouse xylene induced ear edema model assessed as inhibition of auricular edemas at 30 mg/kg, po once daily administered for 3 days prior to xylene stimulation and measured after 30 mins relative to control; type: functional; conditions: 72 h, time 3 day
[4] = system: Mus musculus; assay: Analgesic activity in mouse model of acetic-acid induced writhing assessed as number of writhes at 30 mg/kg, po once daily administered for 3 days prior to acetic acid injection measured after 20 mins (reference value: 29.13+/-9.36); type: functional; conditions: time 3 day
[5] = molecular target: T2, Prostaglandin G/H synthase 1 (Ovis aries); assay: Inhibition of ovine COX-1 assessed as production of PGE2 using arachidonic acid as a substrate preincubated for 60 mins at 10 uM followed by substrate addition and measured after 2 mins by ELISA analysis relative to control
[6] = molecular target: T2, Prostaglandin G/H synthase 1 (Ovis aries); assay: Inhibition of ovine COX-1 assessed as production of PGE2 using arachidonic acid as a substrate preincubated for 60 mins at 0.1 uM followed by substrate addition and measured after 2 mins by ELISA analysis relative to control
[7] = system: Mus musculus; assay: Antiinflammatory activity in mouse xylene induced ear edema model assessed as ear weight difference at 30 mg/kg, po once daily administered for 3 days prior to xylene stimulation and measured after 30 mins (reference value: 13.64 =/- 2.55 mg); type: functional; conditions: time 3 day
[8] = molecular target: T2, Prostaglandin G/H synthase 1 (Ovis aries); assay: Inhibition of ovine COX-1 assessed as production of PGE2 using arachidonic acid as a substrate preincubated for 60 mins at 1 uM followed by substrate addition and measured after 2 mins by ELISA analysis relative to control
[9] = Solubility of the compound in water; type: physicochemical; conditions: buffer
[10] = system: Mus musculus; assay: Analgesic activity in mouse model of acetic-acid induced writhing assessed as inhibition of writhing at 30 mg/kg, po once daily administered for 3 days prior to acetic acid injection measured after 20 mins relative to control; type: functional; conditions: 72 h, time 3 day
[11] = Selectivity index, ratio of IC50 for ovine COX-1 to IC50 for human COX-2
[12] = molecular target: T3, Prostaglandin G/H synthase 1 (Ovis aries, UniProt P05979); assay: Inhibition of ovine COX-1 assessed as production of PGE2 using arachidonic acid as a substrate preincubated for 60 mins followed by substrate addition and measured after 2 mins by ELISA analysis
T3 sequence (P05979 whole entry): T2 sequence (whole entry)

Row | SMILES | IC50 [1] [nM] | inhibition [2] [%] | inhibition in vivo at 30 mg/kg [3] [%] | Activity [4] | inhibition [5] [%] | inhibition [6] [%] | Activity [7] [mg] | inhibition [8] [%] | solubility [9] | inhibition in vivo at 30 mg/kg [10] [%] | Ratio [11] | IC50 [12] [nM]
1 | Cc1cc(-c2ccc(F)cc2)nn1S(=O)(=O)Oc1ccccc1 | > 10000 | -2 |  |  |  |  |  |  |  |  |  | 
2 | O=S(=O)(Oc1ccccc1)n1nc(-c2ccccc2)cc1-c1ccccc1 | < 10 | 68 | 25.7 | 17.75 | 44 | 27 | 10.13 | 36 | Insoluble | 39.1 | > 938 | 9380
3 | Cc1ccc(-c2cc(C)n(S(=O)(=O)Oc3ccccc3I)n2)cc1 | 92 | 19 |  |  | 14 | 4 |  | 9 |  |  | > 1090 | > 100000
4 | CCc1ccc(-c2cc(C)n(S(=O)(=O)Oc3ccccc3)n2)cc1 |  |  | 21.1 | 15.13 |  | 11 | 10.76 | -1 | Insoluble | 48.1 |  | 
5 | Cc1cc(-c2cccs2)nn1S(=O)(=O)Oc1ccccc1 |  | 38 |  |  | 33 | 18 |  | 24 |  |  |  | > 100000
6 | Cc1cc(-c2ccccc2)nn1S(=O)(=O)Oc1ccccc1C(F)(F)F | > 100000 |  |  |  |  |  |  |  |  |  |  | 
7 | Cc1cc(-c2ccccc2Cl)nn1S(=O)(=O)Oc1ccccc1 |  | 60 |  |  | 55 | 61 |  | 55 |  |  |  | 
8 | Cc1ccccc1-c1cc(C)n(S(=O)(=O)Oc2ccccc2)n1 | 11100 | 42 |  |  | 55 | 65 |  | 63 |  |  |  | 
9 | Cc1cc(-c2ccc(Cl)cc2)nn1S(=O)(=O)Oc1ccccc1 |  | 43 |  |  | 20 | 16 |  | 18 |  |  |  | > 100000
10 | COc1ccc(-c2cc(C)n(S(=O)(=O)Oc3ccccc3)n2)cc1 |  | 30 |  |  | 29 | 19 |  | 21 |  |  |  | > 100000
11 | Cc1cc(-c2ccc(Br)cc2)nn1S(=O)(=O)Oc1ccccc1 | 200 | 70 |  |  | 71 | 45 |  | 68 |  |  | 1 | 140
12 | Cc1cc(-c2ccc(C(F)(F)F)cc2)nn1S(=O)(=O)Oc1ccccc1 | < 10 | 22 | 35.9 | 21.63 | 18 | 33 | 8.75 | 32 | Insoluble | 25.8 |  | 
13 | Cc1ccc(-c2cc(C)n(S(=O)(=O)Oc3ccc(C)c(C)c3)n2)cc1 |  | 30 |  |  | 31 | 18 |  | 30 |  |  |  | > 100000
14 | Cc1cccc(-c2cc(C)n(S(=O)(=O)Oc3ccccc3)n2)c1 |  | 53 | 8.7 | 16.38 | 33 |  | 12.46 |  | Insoluble | 43.8 |  | 72300
15 | Cc1cc(-c2cccc(Cl)c2)nn1S(=O)(=O)Oc1ccccc1 | 110 | 14 | 10 | 23.63 | 5 | 8 | 8.18 | 17 | Insoluble | 18.9 |  | 
16 | Cc1ccc(-c2cc(C(C)C)n(S(=O)(=O)Oc3ccccc3)n2)cc1 |  | 21 |  |  | 47 | 20 |  | 39 |  |  |  | 18100
17 | Cc1cc(-c2cccnc2)nn1S(=O)(=O)Oc1ccccc1 |  | 34 |  |  | 24 | 19 |  | 23 |  |  |  | 
18 | Cc1cc(-c2ccccn2)nn1S(=O)(=O)Oc1ccccc1 | 100 | 29 | 11.3 | 24.75 | 29 | 25 | 12.1 | 39 | Insoluble | 15 |  | 
19 | Cc1cc(-c2ccc3ccccc3c2)nn1S(=O)(=O)Oc1ccccc1 |  | 27 |  |  | 13 | 4 |  | 7 |  |  |  | 
20 | Cc1cc(-c2ccccn2)nn1S(=O)(=O)Oc1ccc(Cl)cc1 | 5.8 | 83 |  |  | 80 | 51 |  | 56 |  |  | 16 | 90
21 | CC(COCCOCCOCCOCCOCCOCCOCCOCCOCCOCCOCCOCCOCCOCCOCCOCCOCCOCCOCCOCCOCCOCCOCCOCCOCCOCCOCCOCCOCCOCCOCCOCCOCCOCCOCCOCCOCCOCCO)OCC(C)OCC(C)OCC(C)OCC(C)OCC(C)OCC(C)OCC(C)OCC(C)OCC(C)OCC(C)OCC(C)OCC(C)OCC(C)OCC(C)OCC(C)OCC(C)OCC(C)OCC(C)OCC(C)OCC(C)OCC(C)OCC(C)OCC(C)OCC(C)OCC(C)OCC(C)OCC(C)OCC(C)OCC(C)OCCOCCOCCOCCOCCOCCOCCOCCOCCOCCOCCOCCOCCOCCOCCOCCOCCOCCOCCOCCOCCOCCOCCOCCOCCOCCOCCOCCOCCOCCOCCOCCOCCOCCOCCOCCOCCOCCO (stereo not drawn) |  |  | 0 | 29.13 |  |  | 13.64 |  | Insoluble | 0 |  | 
22 | Cc1ccc(-c2cc(-c3ccccc3)n(S(=O)(=O)Oc3ccccc3)n2)cc1 |  | 6 |  |  | 1 | 10 |  | -3 |  |  |  | 
23 | Cc1cc(-c2ccncc2)nn1S(=O)(=O)Oc1ccccc1 |  | 61 |  |  | 43 | 36 |  | 40 |  |  |  | 
24 | Cc1cc(-c2ccco2)nn1S(=O)(=O)Oc1ccccc1 | 31 |  | 12.5 | 16.75 |  | 47 | 11.93 |  | Insoluble | 42.5 |  | 

Reference: ChEMBL document CHEMBL4808246 (Bioorg Med Chem, 2021)
